Columns and labels:
[1] = Growth inhibition of human SGC7901 cells after 72 hrs by MTT assay; type: functional; conditions: SGC-7901, 72 h
[2] = Growth inhibition of human HLF cells after 72 hrs by MTT assay; type: cell-based
HCT-116 [3] = assay: Growth inhibition of human HCT116 cells by MTT assay
HCT-116 [4] = assay: Growth inhibition of human HCT116 cells after 72 hrs by MTT assay; type: functional; conditions: HCT-116, 72 h
[5] = Growth inhibition of human HLF cells by MTT assay
[6] = Growth inhibition of human 16HBE cells by MTT assay
[7] = Growth inhibition of human SGC7901 cells by MTT assay; conditions: SGC-7901
[8] = Growth inhibition of human 16HBE cells after 72 hrs by MTT assay; type: cell-based, 16HBE14o-

Row | GI50 (HCT-116 [3]) [µM] | GI50 (HCT-116 [4]) [µM] | GI50 [7] [µM] | SMILES | GI50 [1] [µM] | GI50 at 72 h [2] [µM] | GI50 [5] [µM] | GI50 [6] [µM] | GI50 at 72 h [8] [µM]
1 | 0.09 | 0.03 | 0.25 | CCCCCCCCCC[C@H](O)COCCOC[C@@H](O)CCCCCCCCCCCCC1=C[C@H](C)OC1=O | 0.16 | 9.71 | 2.62 | 4.8 | 3.34
2 | 11.7 | 1.95 | – | COC1=C(OC)C(=O)C(CCCCCCCCCCN2CCN(CCCCCCCCCCC3=C(C)C(=O)C(OC)=C(OC)C3=O)CC2)=C(C)C1=O | 9.77 | > 20 | > 20 | > 20 | 2.63
3 | 0.15 | 0.18 | 0.19 | COC1=C(C)C(=O)C(CCCCCCCCCCN2CCN(CCCCCCCCCCC3=C(C)C(=O)C(OC)=C(C)C3=O)CC2)=C(C)C1=O | 0.14 | > 20 | > 20 | 8.4 | > 20
4 | 0.12 | 0.07 | – | CC1=C(C)C(=O)C(CCCCCCCCCCN2CCN(CCCCCCCCCCC3=C(C)C(=O)C(C)=C(C)C3=O)CC2)=C(C)C1=O | > 20 | > 20 | 5.87 | 1.52 | 3.85
5 | 0.26 | 0.26 | 0.39 | CC1=C(CCCCCCCCCCN2CCN(CCCCCCCCCCC3=C(C)C(=O)c4ccccc4C3=O)CC2)C(=O)c2ccccc2C1=O | > 20 | > 20 | 15.7 | 4.15 | 3.52
6 | 8.43 | 1.98 | 11.7 | COC1=C(OC)C(=O)C(CCCCCCCCCCN2CCCN(CCCCCCCCCCC3=C(C)C(=O)C(OC)=C(OC)C3=O)CC2)=C(C)C1=O | 8.69 | > 20 | > 20 | 14 | 1.14
7 | 0.02 | 0.04 | – | COC1=C(C)C(=O)C(CCCCCCCCCCN2CCCN(CCCCCCCCCCC3=C(C)C(=O)C(OC)=C(C)C3=O)CC2)=C(C)C1=O | 0.04 | > 20 | 6.86 | 1.78 | > 20
8 | 0.1 | 0.3 | 0.14 | CC1=C(C)C(=O)C(CCCCCCCCCCN2CCCN(CCCCCCCCCCC3=C(C)C(=O)C(C)=C(C)C3=O)CC2)=C(C)C1=O | 0.14 | 0.36 | 2.55 | 0.91 | 3.32
9 | 0.13 | 0.09 | 0.15 | CC1=C(CCCCCCCCCCN2CCCN(CCCCCCCCCCC3=C(C)C(=O)c4ccccc4C3=O)CC2)C(=O)c2ccccc2C1=O | 0.12 | 4.95 | 2.68 | 1.14 | 2.7
10 | > 20 | 1.48 | – | COC1=C(C)C(=O)C(CCCCCCCCCCN(C)CCN(C)CCCCCCCCCCC2=C(C)C(=O)C(OC)=C(C)C2=O)=C(C)C1=O | 9.76 | > 20 | > 20 | > 20 | > 20
11 | 9.73 | 1.36 | > 20 | COC1=C(OC)C(=O)C(CCCCCCCCCCN2CCCN(C(=O)c3ccc(-c4ccccc4)cc3)CC2)=C(C)C1=O | 5 | > 20 | > 20 | 8.01 | 10.3
12 | 9.68 | 0.89 | 19.4 | COC1=C(C)C(=O)C(CCCCCCCCCCN2CCCN(C(=O)c3ccc(-c4ccccc4)cc3)CC2)=C(C)C1=O | 1.56 | > 20 | > 20 | 9.76 | 3.15
13 | 7.47 | 1.78 | 19.9 | CC1=C(C)C(=O)C(CCCCCCCCCCN2CCCN(C(=O)c3ccc(-c4ccccc4)cc3)CC2)=C(C)C1=O | 1.39 | > 20 | > 20 | 7.97 | 4
14 | 13.2 | 0.97 | > 20 | CC1=C(CCCCCCCCCCN2CCCN(C(=O)c3ccc(-c4ccccc4)cc3)CC2)C(=O)c2ccccc2C1=O | 5.57 | > 20 | > 20 | 12.4 | 2.85
15 | > 20 | > 20 | > 20 | O=C1C=C(CCCCCCCCCCN2CCCN(C(=O)c3ccc(-c4ccccc4)cc3)CC2)C(=O)c2ccccc21 | > 20 | > 20 | > 20 | > 20 | > 20
16 | 20 | 2.29 | > 20 | COC1=C(C)C(=O)C(CCCCCCCCCCN2CCN(C(=O)c3ccc(-c4ccccc4)cc3)CC2)=C(C)C1=O | 5.27 | > 20 | > 20 | > 20 | 3.19
17 | 0.15 | – | 0.55 | COc1cccc2c1C(=O)c1c(O)c3c(c(O)c1C2=O)C[C@@](O)(C(=O)CO)C[C@@H]3O[C@H]1C[C@H](N)[C@H](O)[C@H](C)O1 [DOXORUBICIN] | – | – | 0.33 | 0.18 | –

Source: ChEMBL document CHEMBL3232754, “Identification of novel bivalent mimetics of annonaceous acetogenins via a scaffold-hopping strategy” (Bioorg Med Chem Lett, 2014)
